US9617229B2, “Phenylmorpholines and analogues thereof” (Research Triangle Institute, priority 2010, dated 2017)
Counter-ions that a name gives are not always drawn. Like-named read-outs stand apart in the source and are kept apart here.

How the values were obtained:
DAT = DAT (Rattus norvegicus, UniProt P23977); test: DA release assay (synaptosomes, [3H]MPP+); assay type: biochemical; parameters: the supernatants were retained on ice (synaptosomal preparation); from tissue; host or cells: rat caudate synaptosomes; conditions: for activation at 10 µM: Table 3
DAT, sequence (P23977 whole entry): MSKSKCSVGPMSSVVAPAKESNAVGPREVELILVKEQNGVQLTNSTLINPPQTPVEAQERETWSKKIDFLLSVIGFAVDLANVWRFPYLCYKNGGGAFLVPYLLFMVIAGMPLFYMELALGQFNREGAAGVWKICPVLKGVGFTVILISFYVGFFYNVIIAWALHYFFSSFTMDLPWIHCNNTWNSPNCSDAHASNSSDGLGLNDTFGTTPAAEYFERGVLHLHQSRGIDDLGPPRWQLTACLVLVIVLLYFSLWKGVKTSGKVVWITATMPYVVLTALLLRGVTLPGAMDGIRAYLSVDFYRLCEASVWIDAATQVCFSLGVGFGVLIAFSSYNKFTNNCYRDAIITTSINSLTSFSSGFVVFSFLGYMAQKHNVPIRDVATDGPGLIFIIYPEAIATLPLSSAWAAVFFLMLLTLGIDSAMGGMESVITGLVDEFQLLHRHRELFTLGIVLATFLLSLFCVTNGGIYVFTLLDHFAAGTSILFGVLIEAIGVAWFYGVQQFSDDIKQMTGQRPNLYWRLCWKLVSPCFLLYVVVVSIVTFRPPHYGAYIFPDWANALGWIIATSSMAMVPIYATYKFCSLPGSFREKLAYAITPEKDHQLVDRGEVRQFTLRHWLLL
Method: (§1) Rat caudate (for DA release) or whole brain minus cerebellum and caudate (for NE and 5-HT release), was homogenized in ice-cold 10% sucrose containing 1 μM reserpine. Nomifensine (100 nM) and GBR12935 (100 nM) were added to the sucrose solution for [^3H]5-HT release experiments to block any potential [^3H]5-HT reuptake into NE and DA nerve terminals. For the DA release assay, 100 nM desipramine and 100 nM citalopram were added to block [^3H]MPP^+ uptake into NE and 5-HT nerves. For the NE release assay, 50 nM GBR12935 and 100 nM citalopram were added to block [^3H]MPP^+ uptake into DA and 5-HT nerves. After 12 strokes with a Potter-Elvehjem homogenizer, homogenates were centrifuged at 1000×g for 10 min at 0-4° C. and the supernatants were retained on ice (synaptosomal preparation).
(§2) After incubation to steady state, 850 μl of synaptosomes preloaded with [^3H]ligand were added to 12×75 mm polystyrene test tubes that contained 150 μl test drug in uptake buffer plus 1 mg/ml BSA. After 5 min (^3H]5-HT) or 30 min (NE and DA assays) the release reaction was terminated by dilution with 4 ml wash buffer (10 mM Tris-HCl pH 7.4 containing 0.9% NaCl at 25° C.) followed by rapid vacuum filtration over Whatman GF/B filters using a Brandel Harvester. The filters were rinsed twice with 4 ml wash buffer using the Brandel Harvester, and the retained tritium was counted by a Taurus liquid scintillation counter at 40% efficiency after an overnight extraction in 3 ml Cytoscint (ICN).
(§3) In substrate reversal experiments, statistical significance was determined using the Student's t-test.

SERT [1] = molecular target: T1, SERT (Rattus norvegicus, UniProt P31652); test: 5-HT release assay (synaptosomes, [3H]5-HT); assay type: biochemical; parameters: the supernatants were retained on ice (synaptosomal preparation); from tissue; host or cells: rat whole brain minus cerebellum and caudate, synaptosomes; conditions: for activation at 10 µM / Release 5-HT (EC50 nm): Table 3; for Release 5-HT (EC50 nm): rat brain synaptosomes
T1 sequence (P31652 whole entry): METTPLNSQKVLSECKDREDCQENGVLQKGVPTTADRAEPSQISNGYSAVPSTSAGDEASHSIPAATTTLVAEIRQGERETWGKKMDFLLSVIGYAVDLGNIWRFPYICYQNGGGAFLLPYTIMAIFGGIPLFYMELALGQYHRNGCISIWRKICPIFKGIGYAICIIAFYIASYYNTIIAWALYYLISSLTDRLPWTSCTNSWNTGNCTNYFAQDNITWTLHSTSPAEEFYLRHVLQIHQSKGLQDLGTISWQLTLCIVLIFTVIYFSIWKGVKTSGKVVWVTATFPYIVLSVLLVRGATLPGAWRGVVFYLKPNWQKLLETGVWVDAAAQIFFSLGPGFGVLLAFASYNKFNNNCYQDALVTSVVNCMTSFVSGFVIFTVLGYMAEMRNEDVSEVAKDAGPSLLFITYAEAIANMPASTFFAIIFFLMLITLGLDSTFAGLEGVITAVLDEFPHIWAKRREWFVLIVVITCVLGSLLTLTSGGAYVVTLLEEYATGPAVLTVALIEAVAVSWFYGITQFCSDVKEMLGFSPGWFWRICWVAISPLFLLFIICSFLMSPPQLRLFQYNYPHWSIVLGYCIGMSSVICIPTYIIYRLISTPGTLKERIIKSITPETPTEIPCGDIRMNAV
Method: as §1, §2, §3

NET = molecular target: T2, NET (Rattus norvegicus, UniProt Q63380); test: NE release assay (synaptosomes, [3H]MPP+); assay type: biochemical
T2 construct: the supernatants were retained on ice (synaptosomal preparation); from tissue; host or cells: rat whole brain minus cerebellum and caudate, synaptosomes
T2 sequence (Q63380 1-617): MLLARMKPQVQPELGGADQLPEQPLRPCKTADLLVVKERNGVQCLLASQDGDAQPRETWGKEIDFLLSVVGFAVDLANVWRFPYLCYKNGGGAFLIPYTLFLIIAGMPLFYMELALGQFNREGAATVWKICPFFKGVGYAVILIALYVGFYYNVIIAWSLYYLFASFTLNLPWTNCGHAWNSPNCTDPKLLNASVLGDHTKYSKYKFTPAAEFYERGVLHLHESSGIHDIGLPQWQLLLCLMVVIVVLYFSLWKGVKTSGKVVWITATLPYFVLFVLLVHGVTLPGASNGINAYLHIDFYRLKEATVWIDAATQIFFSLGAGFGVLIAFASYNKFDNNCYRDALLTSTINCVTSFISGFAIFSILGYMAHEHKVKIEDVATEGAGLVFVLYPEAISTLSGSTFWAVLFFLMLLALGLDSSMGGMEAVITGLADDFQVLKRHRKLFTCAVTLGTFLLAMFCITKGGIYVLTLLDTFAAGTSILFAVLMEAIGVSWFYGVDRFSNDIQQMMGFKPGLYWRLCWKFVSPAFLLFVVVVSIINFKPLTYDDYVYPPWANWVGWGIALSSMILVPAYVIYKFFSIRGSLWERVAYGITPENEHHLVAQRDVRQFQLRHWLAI
Method: as §1, §2, §3

5-HT2B receptor [2] = molecular target: T3, 5-HT2B receptor (Homo sapiens, UniProt P41595); test: 5-HT2B activity, agonist; assay type: cell-based
T3 sequence (P41595 whole entry): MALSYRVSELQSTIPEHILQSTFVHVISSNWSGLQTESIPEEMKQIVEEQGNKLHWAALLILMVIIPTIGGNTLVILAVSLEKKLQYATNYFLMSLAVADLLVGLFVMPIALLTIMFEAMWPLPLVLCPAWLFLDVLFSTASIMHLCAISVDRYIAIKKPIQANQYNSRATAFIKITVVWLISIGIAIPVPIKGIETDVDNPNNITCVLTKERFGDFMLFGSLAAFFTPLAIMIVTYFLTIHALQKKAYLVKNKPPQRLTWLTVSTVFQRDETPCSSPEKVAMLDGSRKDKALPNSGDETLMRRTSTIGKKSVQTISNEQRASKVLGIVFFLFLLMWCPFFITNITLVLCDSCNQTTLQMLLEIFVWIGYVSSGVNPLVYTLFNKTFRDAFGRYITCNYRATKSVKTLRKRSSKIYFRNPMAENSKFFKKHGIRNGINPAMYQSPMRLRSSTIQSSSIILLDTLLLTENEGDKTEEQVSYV

5-HT2B receptor [3] = molecular target: T3, 5-HT2B receptor; test: 5-HT2B activity, antagonist; assay type: cell-based
SERT [4] = molecular target: T1, SERT; test: 5HT uptake inhibition; assay type: biochemical
[5] = Release NE (EC50 nm), Table 3, rat brain synaptosomes

Row | SMILES | EC50 (SERT [1]) [µM] | EC50 (NET; NE Rel (EC50), Table 4) [µM] | EC50 (DAT) [µM] | activation at 10 µM (5-HT2B receptor [2]) [%] | inhibition at 1 µM (5-HT2B receptor [3]) [%] | activation at 10 µM (SERT [1]) [%] | activation at 10 µM (NET; Table 3) [%] | activation at 10 µM (DAT) [%] | other results
1 | CC1NCCOC1c1ccccc1 (single isomer, unassigned; (-)) [(−)-isomer, reference compound] | – | – | – | – | – | – | – | – | DA releaser activity (in words) (DAT): active as a releaser, but is not as potent
2 | C[C@H]1NCCOC1c1cccc(F)c1 (stereo in doubt) [PAL593, 2-(3-fluoro-phenyl)-3-methyl-morpholine] | 2.56 | 0.03 | 0.043 | – | – | – | – | – | –
3 | C[C@H]1NCCOC1c1cccc(Cl)c1 (stereo in doubt) [PAL594, 2-(3-chloro-phenyl)-3-methyl-morpholine] | 0.301 | 0.075 | 0.027 | 2 | 28 | 95 | 82 | 100 | 5HT releaser activity (in words) (SERT [1]): improvements in 5HT release
4 | C[C@H]1NCCOC1c1ccccc1 (stereo partly shown) [PAL55, reference compound] | 7.77 | – | 0.131 | 0 | – | – | – | – | EC50 (NET; [5]): 0.05 µM
5 | C[C@H]1NCCO[C@@H]1c1ccccc1 [PAL56, (+)-phenmetrazine, reference compound] | 3.25 | 0.038 | 0.087 | 0 | 42 | – | – | – | 5HT releaser activity (in words) (SERT [1]): effective DA/5HT releaser; EC50 (NET; [5]): 0.037 µM; DA releaser activity (in words) (DAT): effective DA/5HT releaser
6 | C[C@@H]1NCCO[C@H]1c1ccccc1 [PAL57, reference compound] | – | – | 0.415 | 0 | – | – | – | – | Release 5-HT (EC50 nm) (SERT [1]): inactive; EC50 (NET; [5]): 0.063 µM
7 | C[C@H]1NCCO[C@H]1c1ccccc1 [PAL60, reference compound] | – | – | 1.46 | 0 | – | – | – | – | Release 5-HT (EC50 nm) (SERT [1]): Inactive; EC50 (NET; [5]): 0.349 µM
8 | CC1NCCOC1(O)c1ccccc1 (stereo not shown) [PAL583, 3-methyl-2-phenylmorpholin-2-ol] | – | – | – | 0 | 6 | 0 | 69 | 29 | –
9 | CC1NCCOC1(O)c1cccc(F)c1 (stereo not shown) [PAL587, 2-(3-fluorophenyl)-3-methylmorpholin-2-ol] | – | – | – | 0 | 0 | 6 | 67 | 34 | –
10 | Cc1cccc(C2(O)OCCNC2C)c1 (stereo not shown) [PAL589, 3-methyl-2-(3′-tolyl)morpholin-2-ol] | – | – | – | 0 | 12 | 56 | 47 | 28 | –
11 | CC1NCCOC1(O)c1cccc(Cl)c1 (stereo not shown) [PAL590, 2-(3-chlorophenyl)-3-methylmorpholin-2-ol] | – | – | – | 0 | 16 | 41 | 62 | 39 | –
12 | CC1NCCOC1c1cccc(F)c1 (stereo not shown) [PAL593, 2-(3-fluoro-phenyl)-3-methyl-morpholine] | – | – | – | 0 | 1 | 95 | 93 | 100 | –
13 | c1ccc(C2CNCCO2)cc1 (stereo not shown) [PAL632] | 20.3 | 0.079 | 0.086 | 2 | 12 | 31 | 96 | 98 | –
14 | Fc1ccc(C2CNCCO2)cc1 (stereo not shown) [PAL635, 2-(4-fluorophenyl)morpholine] | 2.4 | 0.285 | 0.529 | 0 | – | 88 | 100 | 95 | –
15 | CC1NCCOC1c1ccc2ccccc2c1 (stereo not shown) [PAL 704, 3-Methyl-2-(2′-Naphthyl)morpholine hydrochloride] | – | 0.203 | 0.111 | – | – | – | – | – | 5HT uptake inhibition (in words) (SERT [4]): 5HT uptake inhibitors; EC50 (SERT [4]): 0.105 µM; NE releaser activity (in words) (NET): DA/NE releasers; DA releaser activity (in words) (DAT): DA/NE releasers
16 | C[C@H]1CO[C@@H](c2ccccc2)CN1 [PAL 730, (2S,5S)-5-Methyl-2-phenyl-morpholine] | 0.107 | – | 0.212 | – | – | – | – | – | EC50 (NET): 0.079 µM
17 | C[C@H]1CO[C@@H](c2cccc(Cl)c2)CN1 [PAL 738, (2S,5S)-2-(3-Chloro-phenyl)-5-methyl-morpholine] | 0.023 | – | 0.058 | – | – | – | – | – | EC50 (NET): 0.065 µM
